{"source": "ChEMBL document CHEMBL1155423", "about": "“Unprecedented NES non-antagonistic inhibitor for nuclear export of Rev from Sida cordifolia” (Bioorg Med Chem Lett, 2010)", "note": "pIC50: −log10 of the molar value.", "data": [{"experiment": "Inhibition of CRM1 interaction with HIV1 HA-tagged Rev in HeLa cells assessed as inhibition of Rev nuclear export by indirect fluorescent antibody technique", "format": "cell-based", "values": [{"smiles": "CCCCC/C=C\\C=C\\C(O)CCCCC(=O)O", "note": "(configuration not stated)", "pIC50": "< 4.52"}, {"smiles": "CCCCC/C=C\\C=C\\C(O)CCC(=O)O", "note": "(configuration not stated)", "pIC50": "< 4.52"}, {"smiles": "CCCCC/C=C\\C=C\\C(O)CCCCCCCC(=O)O", "note": "(configuration not stated)", "pIC50": 5.14}, {"smiles": "CCCCC/C=C\\C=C\\CCCCCCCCC(=O)O", "pIC50": 4.82}, {"smiles": "CCCCC/C=C\\C=C\\C(C)O", "note": "(configuration not stated)", "pIC50": "< 4.52"}, {"smiles": "CCCCCCCCCC(O)CCCCCCCC(=O)O", "note": "(configuration not stated)", "pIC50": "< 4.52"}, {"smiles": "CC(O)CCCCCCCC(=O)O", "note": "(configuration not stated)", "pIC50": 4.68}]}]}
